Measured values taken from EP0540143B1, “Compounds and methods for inhibition of HIV and related viruses” (priority 1991, dated 1993).

What was measured:
HIV virus = test: Test A (XTT), MT4 cells infected with HIV; assay type: cell-based; settings: for inhibition at 0.1 µg/mL / inhibition at 1 µg/mL / inhibition at 10 µg/mL / inhibition at 100 µg/mL: Human immunodeficiency virus 1, MT4, Test A; for % inhibition: Test A
Experimental: (§1) Tests A, B, C, and D (XTT)
(§2) MT4 cells in a medium of RPMI 1640, 5% FCS, penicillin/streptomycin are adjusted to 2x10^5 cells/ml and seeded into microplates (96 wells/plate) 100 µl cell suspension/well giving 2x10^4 cells/well. The compound to be tested is made into a 10 mg/ml mixture in DMSO and stored at -20°C. The compound in DMSO is diluted with medium containing 10% DMSO in a 10-fold dilution series to give 1 mg/ml, 10 mg/ml, and […] solutions. Further dilutions to 400, 40, 4 and 0.4 mg/ml are made in medium containing microplates. Fifty µl of the 400, 40, and 4 mg/ml are transferred to the cell-containing microplates with a multi-channel pipette (final concentration: 100, 10, and 1 mg/ml). Finally, 50 µl of virus suspension is added to each well (with a repetitive "Eppendorf" multipipett). Each plate has at least six wells with the following: [Test A: HIV virus; Test B: HIV(II) virus; Test C: SIV virus; Test D: No virus]; with no drug (virus control) and six wells without virus (medium control). The plate is put into a plastic bag and incubated for six days in CO2 atmosphere. To each well in the plate is added 50 µl of XTT ((2,3-bis[2-methoxy-4-nitro-5-sulfophenyl]-5-[(phenylamino)carbonyl]-2H-tetrazolium hydroxide), (1 mg/ml 0.01-0.02 mM N-metyl-phenazonium methosulfate). After six hours of incubation in CO2 atmosphere the plates are covered with adhesive plate sealers and gently mixed on a vortex. Optical densities are determined at a wavelength of 450 nm and a reference wavelength of 650 nm. The percent reduction of cytotoxocity caused by the virus infection is calculated as follows: (OD450 compound - OD450 inf cells)/(OD450 uninf cells - OD450 inf cells)x 100 [formula]

recombinant HIV-RT = recombinant HIV-RT (Human immunodeficiency virus type 1 group M subtype B, UniProt P04585); test: Test I (HIVRT (rAdt)), direct inhibition of recombinant HIV-RT; assay type: biochemical
Experimental: The compounds were tested for direct inhibitory activity on HIV-RT in a volume of […] recombinant HIV-RT (diluted in virus disruption buffer to give 200.000 cpm).
100 mM Tris-HCl pH 7.6, 100 mM KCl, 4 mM MgCl2, 4 mM DTT, 275 mg/ml BSA, 0.5 mg (rA)n(dT)12-18 and 0.3 mM ^3H- dTTP (specific activity […]). After 60 minutess of incubation 40 ml in duplicate were spotted on paper discs and washed in 5% TCA. After rinsing the paper discs in ethanol they were dried and counted in scintillation fluid.

SIV virus = test: Test C (XTT), MT4 cells infected with SIV; assay type: cell-based; settings: Simian immunodeficiency virus, MT4, Test C
Experimental: as §1, §2

HIV(II) virus = test: Test B (XTT), MT4 cells infected with HIV(II); assay type: cell-based; settings: Human immunodeficiency virus 1, MT4, Test B
Experimental: as §1, §2

SMILES	inhibition at 1 µg/mL (HIV virus; 1 µg/ml) [%]	inhibition at 10 µg/mL (HIV virus; 10 µg/ml) [%]	inhibition at 100 µg/mL (HIV virus) [%]	inhibition at 0.1 µg/mL (recombinant HIV-RT) [%]	inhibition at 1 µg/mL (recombinant HIV-RT) [%]	inhibition at 10 µg/mL (recombinant HIV-RT; 10 µg/ml) [%]	also measured
S=C(NCCc1ccccc1)N1CCOCC1	13	9	–	–	–	–	inhibition at 0.1 µg/mL (HIV virus): 0%
CN1CCN(C(=S)NCCc2ccccc2)CC1	0	0	0	–	–	–	–
S=C(NCCc1ccccc1)Nc1ccccn1	0	2	6	–	–	–	–
S=C(NCCc1ccccc1)Nc1ccc(Cl)cc1	17	67	0	4	29	35	–
S=C(NCCc1ccccc1)Nc1ncco1	0	0	–	–	–	–	inhibition at 0.1 µg/mL (HIV virus): 0%
COC(=O)C(=O)c1csc(NC(=S)NCCc2ccccc2)n1	0	0	0	1	1	13	–
CCc1nnc(NC(=S)NCCc2ccccc2)s1	0	7	17	12	–	11	% inhibition (recombinant HIV-RT; 10 µg/ml): 17%
CCOc1ccccc1CCNC(=S)Nc1nccs1	96	100	100	12	30	33	inhibition at 1 µg/mL (SIV virus): 0%; inhibition at 10 µg/mL (SIV virus): 5%; inhibition at 100 µg/mL (SIV virus): 0%; inhibition at 1 µg/mL (HIV(II) virus; 1 µg/ml): 100%; inhibition at 10 µg/mL (HIV(II) virus; 10 µg/ml): 91%; inhibition at 100 µg/mL (HIV(II) virus; 100 µg/ml): 100%
S=C(NCCc1ccccc1)Nc1cnccn1	4	100	100	1	27	36	inhibition at 1 µg/mL (SIV virus): 2%; inhibition at 10 µg/mL (SIV virus): 20%; inhibition at 100 µg/mL (SIV virus): 100%
CC(C)(C)c1csc(NC(=S)NCCc2ccccc2)n1	0	9	0	8	8	15	inhibition at 0.1 µg/mL (HIV virus): 0%
Fc1ccc(NC(=S)NCCc2ccccc2)cc1	5	41	0	–	–	–	inhibition at 0.1 µg/mL (HIV virus): 0%; % inhibition (HIV virus; 10 µg/ml): 32%
Fc1cccc(Cl)c1CCNC(=S)Nc1nccs1	100	–	–	43	77	92	% inhibition (HIV virus; 1 µg/ml): 98%; % inhibition (HIV virus; 10 µg/ml): 52%
S=C(NCCc1ccccc1)N1CCCCC1	0	0	–	–	–	–	inhibition at 0.1 µg/mL (HIV virus): 0%
S=C(NCCc1ccccc1)Nc1ccccc1Cl	0	52	0	5	31	50	–
CCOc1ccc2nc(NC(=S)NCCc3ccccc3)sc2c1	0	5	33	1	5	8	–
Cc1nnc(NC(=S)NCCc2ccccc2)s1	3	38	20	1	21	18	–
S=C(NCCc1ccccc1)Nc1cnc2ccccc2c1	0	71	0	–	–	–	–
